Key:
Experiment in all cases: increase in dead-cell fraction, 72 h; higher = more death;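 also: breast cancer cell lines in 384-well plates, stained with Hoechst plus LIVE/DEAD far red dye and imaged, cells above an LDR intensity threshold counted dead, Hoechst-negative corpses included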
THZ1 = compound: CN(C)C/C=C/C(=O)Nc1ccc(C(=O)Nc2cccc(Nc3ncc(Cl)c(-c4c[nH]c5ccccc45)n3)c2)cc1 [THZ1]
[1] = compound: CC(=O)c1c(C)c2cnc(Nc3ccc(N4CCNCC4)cn3)nc2n(C2CCCC2)c1=O
THZ531 = compound: CN(C)C/C=C/C(=O)Nc1ccc(C(=O)N2CCC[C@@H](Nc3ncc(Cl)c(-c4c[nH]c5ccccc45)n3)C2)cc1 [THZ531]
LEE011/Ribociclib = compound: CN(C)C(=O)c1cc2cnc(Nc3ccc(N4CCNCC4)cn3)nc2n1C1CCCC1 [LEE011/Ribociclib]
Flavopiridol = compound: CN1CC[C@H](c2c(O)cc(O)c3c(=O)cc(-c4ccccc4Cl)oc23)[C@H](O)C1 [Flavopiridol]
YKL-5-124 = compound: C=CC(=O)Nc1ccc(C(=O)Nc2[nH]nc3c2CN(C(=O)N[C@H](CN(C)C)c2ccccc2)C3(C)C)cc1 [YKL-5-124]

With PDXHCI002 the “increase in dead-cell fraction” value (THZ1; 0.1 µM) was 0.272, the “increase in dead-cell fraction” value (THZ1; 0.3162 µM) was 0.269 and the “increase in dead-cell fraction” value (THZ1; 1 µM) was 0.282. For the same cell line, the “increase in dead-cell fraction” value ([1]; 0.0003162 µM) was -0.0007, the “increase in dead-cell fraction” value ([1]; 0.001 µM) was 0.0001 and the “increase in dead-cell fraction” value ([1]; 0.003162 µM) was -0.0134. The “increase in dead-cell fraction” value ([1]; 0.01 µM) was -0.0207, the “increase in dead-cell fraction” value ([1]; 0.03162 µM) was -0.015 and the “increase in dead-cell fraction” value ([1]; 0.1 µM) was -0.0124. For the same cell line, the “increase in dead-cell fraction” value ([1]; 0.3162 µM) was -0.0203, the “increase in dead-cell fraction” value ([1]; 1 µM) was -0.0173 and the “increase in dead-cell fraction” value ([1]; 3.162 µM) was -0.0092. The “increase in dead-cell fraction” value (THZ531; 0.0001 µM) was -0.0252, the “increase in dead-cell fraction” value (THZ531; 0.0003162 µM) was -0.029 and the “increase in dead-cell fraction” value (THZ531; 0.001 µM) was -0.0123. The “increase in dead-cell fraction” value (THZ531; 0.003162 µM) was 0.0054, the “increase in dead-cell fraction” value (THZ531; 0.01 µM) was 0.0146 and the “increase in dead-cell fraction” value (THZ531; 0.03162 µM) was 0.0278. For the same cell line, the “increase in dead-cell fraction” value (THZ531; 0.1 µM) was 0.241, the “increase in dead-cell fraction” value (THZ531; 0.3162 µM) was 0.379 and the “increase in dead-cell fraction” value (THZ531; 1 µM) was 0.263. For the same cell line, the “increase in dead-cell fraction” value (LEE011/Ribociclib; 0.001 µM) was -0.0323, the “increase in dead-cell fraction” value (LEE011/Ribociclib; 0.003162 µM) was -0.0237 and the “increase in dead-cell fraction” value (LEE011/Ribociclib; 0.01 µM) was -0.0167. The “increase in dead-cell fraction” value (LEE011/Ribociclib; 0.03162 µM) was -0.0095, the “increase in dead-cell fraction” value (LEE011/Ribociclib; 0.1 µM) was -0.0015 and the “increase in dead-cell fraction” value (LEE011/Ribociclib; 0.3162 µM) was -0.0029. For the same cell line, the “increase in dead-cell fraction” value (LEE011/Ribociclib; 1 µM) was -0.0185, the “increase in dead-cell fraction” value (LEE011/Ribociclib; 3.162 µM) was 0.0196 and the “increase in dead-cell fraction” value (LEE011/Ribociclib; 10 µM) was 0.0853. The “increase in dead-cell fraction” value (Flavopiridol; 0.0001 µM) was -0.0222, the “increase in dead-cell fraction” value (Flavopiridol; 0.0003162 µM) was 0.0027 and the “increase in dead-cell fraction” value (Flavopiridol; 0.001 µM) was -0.0057. For the same cell line, the “increase in dead-cell fraction” value (Flavopiridol; 0.003162 µM) was 0.0089, the “increase in dead-cell fraction” value (Flavopiridol; 0.01 µM) was 0.0079 and the “increase in dead-cell fraction” value (Flavopiridol; 0.03162 µM) was 0. The “increase in dead-cell fraction” value (Flavopiridol; 0.1 µM) was 0.0552, the “increase in dead-cell fraction” value (Flavopiridol; 0.3162 µM) was 0.306 and the “increase in dead-cell fraction” value (Flavopiridol; 1 µM) was 0.294. The “increase in dead-cell fraction” value (YKL-5-124; 0.001 µM) was 0.156, the “increase in dead-cell fraction” value (YKL-5-124; 0.003162 µM) was 0.144 and the “increase in dead-cell fraction” value (YKL-5-124; 0.01 µM) was 0.185. For the same cell line, the “increase in dead-cell fraction” value (YKL-5-124; 0.03162 µM) was 0.172, the “increase in dead-cell fraction” value (YKL-5-124; 0.1 µM) was 0.186 and the “increase in dead-cell fraction” value (YKL-5-124; 0.3162 µM) was 0.234. For the same cell line, the “increase in dead-cell fraction” value (YKL-5-124; 1 µM) was 0.186, the “increase in dead-cell fraction” value (YKL-5-124; 3.162 µM) was 0.255 and the “increase in dead-cell fraction” value (YKL-5-124; 10 µM) was 0.182.
